Measured values: PubChem BioAssay AID1918946 (Molecular Pharmacology Branch, DTP, NCI, 2023)
Several values for one entry are separate records, joined by “and”; a condition that tells them apart may be missing. Equal values may be shown once.

System: 885512-296-R-J2-PDC complex spheroid viability
Experiment: Anticancer human tumor 885512-296-R-J2-PDC patient-derived breast carcinoma cell line growth inhibition
Conditions: for viability, T/C: stronger effect = lower value
Method in brief: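 Multicellular complex spheroids of tumor cells with human endothelial cells (HUVEC) and mesenchymal stem cells; the LSD1 inhibitor iadademstat was combined with standard-of-care or investigational agents. Top concentration at or near clinical Cmax, half-log dilutions; final DMSO ≤0.25%.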

[1] = curve of first compound, second compound 0.1 µM
[2] = curve of first compound, second compound 0.316 µM
[3] = curve of first compound, second compound 1 µM
[4] = curve of first compound, second compound 3.16 µM
[5] = curve of first compound, second compound 10 µM
[6] = second compound 0.1 µM, first compound 0.00949 µM
[7] = second compound 0.1 µM, first compound 0.03 µM
[8] = second compound 0.1 µM, first compound 0.0949 µM
[9] = second compound 0.1 µM, first compound 0.3 µM
[10] = second compound 0.1 µM, first compound 0.949 µM
[11] = second compound 0.1 µM, first compound 3 µM
[12] = second compound 0.316 µM, first compound 0.00949 µM
[13] = second compound 0.316 µM, first compound 0.03 µM
[14] = second compound 0.316 µM, first compound 0.0949 µM
[15] = second compound 0.316 µM, first compound 0.3 µM
[16] = second compound 0.316 µM, first compound 0.949 µM
[17] = second compound 0.316 µM, first compound 3 µM
[18] = second compound 1 µM, first compound 0.00949 µM
[19] = second compound 1 µM, first compound 0.03 µM
[20] = second compound 1 µM, first compound 0.0949 µM
[21] = second compound 1 µM, first compound 0.3 µM
[22] = second compound 1 µM, first compound 0.949 µM
[23] = second compound 1 µM, first compound 3 µM
[24] = second compound 3.16 µM, first compound 0.00949 µM
[25] = second compound 3.16 µM, first compound 0.03 µM
[26] = second compound 3.16 µM, first compound 0.0949 µM
[27] = second compound 3.16 µM, first compound 0.3 µM
[28] = second compound 3.16 µM, first compound 0.949 µM
[29] = second compound 3.16 µM, first compound 3 µM
[30] = second compound 10 µM, first compound 0.00949 µM
[31] = second compound 10 µM, first compound 0.03 µM
[32] = second compound 10 µM, first compound 0.0949 µM
[33] = second compound 10 µM, first compound 0.3 µM
[34] = second compound 10 µM, first compound 0.949 µM
[35] = second compound 10 µM, first compound 3 µM
[36] = second compound 0.1 µM, first compound 0.0316 µM
[37] = second compound 0.1 µM, first compound 0.1 µM
[38] = second compound 0.1 µM, first compound 0.316 µM
[39] = second compound 0.1 µM, first compound 1 µM
[40] = second compound 0.316 µM, first compound 0.0316 µM
[41] = second compound 0.316 µM, first compound 0.1 µM
[42] = second compound 0.316 µM, first compound 0.316 µM
[43] = second compound 0.316 µM, first compound 1 µM
[44] = second compound 1 µM, first compound 0.0316 µM
[45] = second compound 1 µM, first compound 0.1 µM
[46] = second compound 1 µM, first compound 0.316 µM
[47] = second compound 1 µM, first compound 1 µM
[48] = second compound 3.16 µM, first compound 0.0316 µM
[49] = second compound 3.16 µM, first compound 0.1 µM
[50] = second compound 3.16 µM, first compound 0.316 µM
[51] = second compound 3.16 µM, first compound 1 µM
[52] = second compound 10 µM, first compound 0.0316 µM
[53] = second compound 10 µM, first compound 0.1 µM
[54] = second compound 10 µM, first compound 0.316 µM
[55] = second compound 10 µM, first compound 1 µM
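Note: spheroids exposed to agents for 7 days before viability read.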

COc1cc(C2c3cc4c(cc3C(OC3OC5COC(C)OC5C(O)C3O)C3COC(=O)C23)OCO4)cc(OC)c1O (stereo unspecified) + NC1CC1c1ccc(-c2cccc(O)c2)cc1
IC50 [1]: 0.0517 µM
IC50 [2]: 0.0484 µM
IC50 [3]: 0.0467 µM
IC50 [4]: 0.0358 µM
IC50 [5]: 0.019 µM
viability, T/C [6]: 115%
viability, T/C [7]: 78.2%
viability, T/C [8]: 18.4%
viability, T/C [9]: 5.27%
viability, T/C [10]: 3.81%
viability, T/C [11]: 3.41%
viability, T/C [12]: 111%
viability, T/C [13]: 73.5%
viability, T/C [14]: 17%
viability, T/C [15]: 4.71%
viability, T/C [16]: 3.36%
viability, T/C [17]: 2.8%
viability, T/C [18]: 113%
viability, T/C [19]: 71%
viability, T/C [20]: 16.5%
viability, T/C [21]: 5.06%
viability, T/C [22]: 4%
viability, T/C [23]: 3.54%
viability, T/C [24]: 100%
viability, T/C [25]: 56%
viability, T/C [26]: 17.2%
viability, T/C [27]: 3.77%
viability, T/C [28]: 3.77%
viability, T/C [29]: 2.6%
viability, T/C [30]: 68.4%
viability, T/C [31]: 37.9%
viability, T/C [32]: 9.86%
viability, T/C [33]: 3.55%
viability, T/C [34]: 3.7%
viability, T/C [35]: 3.37%

COc1cc(C2c3cc4c(cc3C(OC3OC5COC(C)OC5C(O)C3O)C3COC(=O)C23)OCO4)cc(OC)c1O (stereo unspecified) + NC1CCC(NC2CC2c2ccccc2)CC1
IC50 [1]: 0.0678 µM
IC50 [2]: 0.0608 µM
IC50 [3]: 0.0668 µM
IC50 [4]: 0.0776 µM
IC50 [5]: 0.0528 µM
viability, T/C [6]: 118%
viability, T/C [7]: 95.8%
viability, T/C [8]: 31.2%
viability, T/C [9]: 11.3%
viability, T/C [10]: 10.2%
viability, T/C [11]: 11.3%
viability, T/C [12]: 108%
viability, T/C [13]: 90.7%
viability, T/C [14]: 24.3%
viability, T/C [15]: 11.8%
viability, T/C [16]: 9.27%
viability, T/C [17]: 8.79%
viability, T/C [18]: 104%
viability, T/C [19]: 86.4%
viability, T/C [20]: 33.4%
viability, T/C [21]: 13%
viability, T/C [22]: 6.51%
viability, T/C [23]: 4.74%
viability, T/C [24]: 98.9%
viability, T/C [25]: 105%
viability, T/C [26]: 39%
viability, T/C [27]: 10.7%
viability, T/C [28]: 6.97%
viability, T/C [29]: 9.62%
viability, T/C [30]: 90.8%
viability, T/C [31]: 64.6%
viability, T/C [32]: 35%
viability, T/C [33]: 14.2%
viability, T/C [34]: 5.81%
viability, T/C [35]: 4.68%

CC1(C)CCC(CN2CCN(c3ccc(C(=O)NS(=O)(=O)c4ccc(NCC5CCOCC5)c([N+](=O)[O-])c4)c(Oc4cnc5[nH]ccc5c4)c3)CC2)=C(c2ccc(Cl)cc2)C1 + NC1CC1c1ccc(-c2cccc(O)c2)cc1
IC50 [1]: 1.78 µM
IC50 [2]: 1.82 µM
IC50 [3]: 1.85 µM
IC50 [4]: 1.53 µM
IC50 [5]: 0.994 µM
viability, T/C [36]: 118%
viability, T/C [37]: 111%
viability, T/C [38]: 105%
viability, T/C [39]: 76.4%
viability, T/C (second compound 0.1 µM, first compound 3.16 µM): 23.9%
viability, T/C (second compound 0.1 µM, first compound 10 µM): 0.12%
viability, T/C [40]: 122%
viability, T/C [41]: 112%
viability, T/C [42]: 105%
viability, T/C [43]: 82.3%
viability, T/C (second compound 0.316 µM, first compound 3.16 µM): 20.8%
viability, T/C (second compound 0.316 µM, first compound 10 µM): 0.11%
viability, T/C [44]: 115%
viability, T/C [45]: 116%
viability, T/C [46]: 105%
viability, T/C [47]: 79.9%
viability, T/C (second compound 1 µM, first compound 3.16 µM): 24.4%
viability, T/C (second compound 1 µM, first compound 10 µM): 0.22%
viability, T/C [48]: 103%
viability, T/C [49]: 103%
viability, T/C [50]: 101%
viability, T/C [51]: 68.4%
viability, T/C (second compound 3.16 µM, first compound 3.16 µM): 17.6%
viability, T/C (second compound 3.16 µM, first compound 10 µM): 0.11%
viability, T/C [52]: 83.1%
viability, T/C [53]: 78.8%
viability, T/C [54]: 70.5%
viability, T/C [55]: 52.1%
viability, T/C (second compound 10 µM, first compound 3.16 µM): 12.4%
viability, T/C (second compound 10 µM, first compound 10 µM): 0.15%

COc1cc(C2c3cc4c(cc3C(OC3OC5COC(C)OC5C(O)C3O)C3COC(=O)C23)OCO4)cc(OC)c1O (stereo unspecified)
viability, T/C (compound 0.00949 µM): 86.4% and 69.3%
viability, T/C (compound 0.03 µM): 64.5% and 70.5%
viability, T/C (compound 0.0949 µM): 32.7% and 18.8%
viability, T/C (compound 0.3 µM): 10.8% and 4.99%
viability, T/C (compound 0.949 µM): 6.14% and 3.49%
viability, T/C (compound 3 µM): 7.43% and 2.68%
IC50 (curve of compound): 0.0505 µM and 0.047 µM

CC[C@@]1(O)C(=O)OCc2c1cc1n(c2=O)Cc2cc3c(CN(C)C)c(O)ccc3nc2-1
viability, T/C (compound 0.000316 µM): 59.8% and 76.7%
viability, T/C (compound 0.001 µM): 16.6% and 36.4%
viability, T/C (compound 0.00316 µM): 8.16% and 3.47%
viability, T/C (compound 0.01 µM): 7.89% and 3.58%
viability, T/C (compound 0.0316 µM): 9.39% and 2.75%
viability, T/C (compound 0.1 µM): 9.51% and 1.92%
IC50 (curve of compound): 0.00041 µM and 0.000678 µM

COc1cc(Nc2ncc3c(n2)-c2ccc(Cl)cc2C(c2c(F)cccc2OC)=NC3)ccc1C(=O)O + NC1CCC(NC2CC2c2ccccc2)CC1
IC50 [1]: 0.00896 µM
IC50 [2]: 0.00735 µM
IC50 [3]: 0.00737 µM
IC50 [4]: 0.00953 µM
IC50 [5]: 0.00512 µM
viability, T/C (second compound 0.1 µM, first compound 0.00316 µM): 78.8%
viability, T/C (second compound 0.1 µM, first compound 0.01 µM): 42.8%
viability, T/C [36]: 33.2%
viability, T/C [37]: 24%
viability, T/C [38]: 12.3%
viability, T/C [39]: 13.2%
viability, T/C (second compound 0.316 µM, first compound 0.00316 µM): 90.6%
viability, T/C (second compound 0.316 µM, first compound 0.01 µM): 31.3%
viability, T/C [40]: 34.2%
viability, T/C [41]: 39.1%
viability, T/C [42]: 14.5%
viability, T/C [43]: 11.5%
viability, T/C (second compound 1 µM, first compound 0.00316 µM): 90.9%
viability, T/C (second compound 1 µM, first compound 0.01 µM): 29.4%
viability, T/C [44]: 37.3%
viability, T/C [45]: 22.1%
viability, T/C [46]: 17.5%
viability, T/C [47]: 13.2%
viability, T/C (second compound 3.16 µM, first compound 0.00316 µM): 87.4%
viability, T/C (second compound 3.16 µM, first compound 0.01 µM): 42.1%
viability, T/C [48]: 33.7%
viability, T/C [49]: 38.1%
viability, T/C [50]: 14.6%
viability, T/C [51]: 16.6%
viability, T/C (second compound 10 µM, first compound 0.00316 µM): 70.5%
viability, T/C (second compound 10 µM, first compound 0.01 µM): 21.4%
viability, T/C [52]: 29.7%
viability, T/C [53]: 22.7%
viability, T/C [54]: 17.1%
viability, T/C [55]: 15.3%

Nc1ncn(C2CC(O)C(CO)S2)c(=O)n1 (stereo unspecified)
viability, T/C (compound 0.000949 µM): 81.4% and 90.5%
viability, T/C (compound 0.003 µM): 52.7% and 62.2%
viability, T/C (compound 0.00949 µM): 39.5% and 33.1%
viability, T/C (compound 0.03 µM): 17.3% and 19.7%
viability, T/C (compound 0.0949 µM): 10.9% and 9.65%
viability, T/C (compound 0.3 µM): 12% and 4.63%
IC50 (curve of compound): 0.00406 µM and 0.00491 µM
